{"source": "patent US8183284B2", "about": "“Compositions for reducing the incidence of drug induced arrhythmia” (Warner Chilcott Company, LLC, priority 2005, dated 2012)", "experiment": "Clinical trials of oral azimilide: incidence of torsades de pointes (TdP)", "type": "in vivo, patients", "protocol": "Clinical trials are conducted where 5375 patients receive oral doses of azimilide. Patients are administered azimilide using a 3-day, twice daily loading regimen of 150-250 mg/day followed by a daily maintenance regimen (75-125 mg/day) of ½ of the loading dose, or are given daily azimilide (75, 100 or 125 mg/day) without a loading regimen. Overall about 75% of the patients are men and about 25% are women. Two cases of TdP are found in placebo-assigned patients and 54 azimilide-associated cases of TdP. Lack of aspirin use or lack of statin use is more frequent in azimilide patients with TdP. A total of 1191 (22%) patients (243 [16%] females and 948 [25%] males) are taking statins and aspirin as concomitant medication. Among the 54 patients (30 females and 24 males) who experienced TdP, 35% are on aspirin, 20% are on statins and only 11% are taking both a statin and aspirin as concomitant medication.", "data": [{"molecule": "CN1CCN(CCCCN2C(=O)CN(/N=C/c3ccc(-c4ccc(Cl)cc4)o3)C2=O)CC1", "note": "[azimilide]", "values": [{"measurement": "azimilide-associated cases of TdP", "setting": "5375 patients receiving oral azimilide 75-125 mg/day, with or without 3-day loading regimen of 150-250 mg/day", "value": 54, "unit": "cases"}, {"measurement": "share of patients who experienced TdP that are on aspirin", "setting": "among the 54 patients (30 females, 24 males) who experienced TdP, concomitant aspirin", "value": 35, "unit": "%"}, {"measurement": "share of patients who experienced TdP that are on statins", "setting": "among the 54 patients who experienced TdP, concomitant statins", "value": 20, "unit": "%"}, {"measurement": "share of patients who experienced TdP that are taking both a statin and aspirin", "setting": "among the 54 patients who experienced TdP, overall 1191 (22%) of patients take statins and aspirin", "value": 11, "unit": "%"}]}]}
